Experimental data reported in publication PMC6225228, “Design, Synthesis and Evaluation of N-pyrazinylbenzamides as Potential Antimycobacterial Agents” (Molecules : A Journal of Synthetic Chemistry and Natural …, 2018).
In brackets after ≈: the same amount, converted by molar mass. Read-outs that look alike come from different tables or passages of the source.

Tests used:
[1] = system: Mycobacterium tuberculosis H37Rv CNCTC My 331/88 (ATCC 27294); assay: Antimycobacterial microdilution MABA, M. tuberculosis; format: cell-based; settings: Mycobacterium tuberculosis, read-out: Mtb H37Rv ATCC 27294 MIC, Middlebrook 7H9 with OADC growth supplement, pH = 6.6, MABA
[2] = system: M. kansasii CNCTC My 235/80 (ATCC 12478); assay: Antimycobacterial microdilution MABA, M. kansasii; format: cell-based, Mycobacterium kansasii; settings: for MIC: Mycobacterium kansasii, ATCC12478, pH 6.6, read-out: M. kans. ATCC 12478 MIC, Middlebrook 7H9 with OADC, pH 6.6, MABA
[3] = system: M. avium ssp. avium CNCTC My 80/72 (ATCC 15769); assay: Antimycobacterial microdilution MABA, M. avium; format: cell-based, Mycobacterium avium; settings: for MIC: Mycobacterium avium, ATCC15769, pH 6.6, read-out: M. avium ATCC 15769 MIC
[4] = system: Mycobacterium smegmatis CCM 4622 (ATCC 607); assay: Antimycobacterial microdilution, M. smegmatis; format: cell-based; settings: Mycolicibacterium smegmatis, read-out: M. smeg. ATCC 607 MIC
[5] = system: Staphylococcus aureus CCM 4516/08; assay: Antibacterial microdilution broth, SA; format: cell-based; settings: Staphylococcus aureus
[6] = system: Staphylococcus aureus H 5996/08 methicillin resistant; assay: microbe, parasite or virus in culture; format: cell-based; settings: Staphylococcus aureus, MRSA, read-out: MIC MRSA
[7] = system: Staphylococcus epidermidis H 6966/08; assay: Antibacterial microdilution broth, SE; format: cell-based; settings: Staphylococcus epidermidis, read-out: MIC SE
[8] = system: Enterococcus sp. J 14365/08; assay: Antibacterial microdilution broth, EF; format: cell-based; settings: Enterococcus, read-out: MIC EF
[9] = system: Escherichia coli CCM 4517; assay: Antibacterial microdilution broth, EC; format: cell-based; settings: Escherichia coli, read-out: MIC EC
[10] = system: Pseudomonas aeruginosa CCM 1961; assay: Antibacterial microdilution broth, PA; format: cell-based; settings: Pseudomonas aeruginosa, read-out: MIC PA
[11] = system: Candida albicans ATCC 44859; assay: Antifungal microdilution broth, CA; format: cell-based; settings: Candida albicans, read-out: MIC CA
[12] = system: Candida tropicalis 156; assay: Antifungal microdilution broth, CT; format: cell-based; settings: read-out: MIC CT
[13] = system: Candida krusei E28; assay: Antifungal microdilution broth, CK; format: cell-based; settings: Pichia kudriavzevii, read-out: MIC CK
[14] = system: Candida glabrata 20/I; assay: Antifungal microdilution broth, CG; format: cell-based; settings: Nakaseomyces glabratus, 20/I, read-out: MIC CG
[15] = system: Trichosporon asahii 1188; assay: Antifungal microdilution broth, TA; format: cell-based; settings: read-out: MIC TA
[16] = system: Aspergillus fumigatus 231; assay: Antifungal microdilution broth, AF; format: cell-based; settings: read-out: MIC AF
[17] = system: Lichtheimia corymbifera 272; assay: Antifungal microdilution broth, LC; format: cell-based; settings: read-out: MIC LC
[18] = system: Trichophyton interdigitale 445; assay: Antifungal microdilution broth, TI; format: cell-based; settings: read-out: MIC TI
[19] = Middlebrook 7H9 with OADC, pH 6.6, MABA
[20] = CCM4516, 24 h, read-out: MIC SA, 24 h
[21] = CCM4516, 48 h, read-out: MIC SA, 48 h
[22] = Trichosporon asahii, 1188, 24 h
[23] = Trichosporon asahii, 1188, 48 h
[24] = Aspergillus fumigatus, 231, 24 h
[25] = Aspergillus fumigatus, 231, 48 h
[26] = Lichtheimia corymbifera, 272, 24 h
[27] = Lichtheimia corymbifera, 272, 48 h
[28] = Trichophyton interdigitale, 445, 72 h
[29] = Trichophyton interdigitale, 445, 120 h

SMILES	MIC [1] [µg/mL]	MIC [2] [µg/mL]	MIC [3] [µg/mL]	MIC [4] [µg/mL]	MIC [5, 20] [µM]	MIC [5, 21] [µM]	MIC ([6]; 24 h) [µM]	MIC ([6]; 48 h) [µM]	MIC ([7]; H6966/08, 24 h) [µM]	MIC ([7]; H6966/08, 48 h) [µM]	MIC ([8]; SP.J14365/08, 24 h) [µM]	MIC ([8]; SP.J14365/08, 48 h) [µM]	MIC ([9]; CCM4517, 24 h) [µM]	MIC ([9]; CCM4517, 48 h) [µM]	MIC ([10]; CCM1961, 72 h) [µM]	MIC ([10]; CCM1961, 120 h) [µM]	MIC ([11]; ATCC44859, 24 h) [µM]	MIC ([11]; ATCC44859, 48 h) [µM]	MIC ([12]; Candida tropicalis, 156, 24 h) [µM]	MIC ([12]; Candida tropicalis, 156, 48 h) [µM]	further results
O=C(Nc1cnccn1)c1ccccc1 [Compound 1a]	100 (≈ 502 µM)	> 100	> 100	≥ 500	> 500	> 500	> 500	> 500	> 500	> 500	> 500	> 500	> 500	> 500	> 500	> 500	500 (≈ 99.6 µg/mL)	> 500	> 500	> 500	M. kans. ATCC 12478 MIC [2, 19]: >100 µg/mL; M. avium ATCC 15769 MIC [3, 19]: >100 µg/mL; MIC ([13]; E28, 24 h): > 500 µM; MIC ([13]; E28, 48 h): > 500 µM; MIC ([14]; 24 h): > 500 µM; MIC ([14]; 48 h): > 500 µM; MIC [15, 22]: > 500 µM; MIC [15, 23]: > 500 µM; MIC [16, 24]: > 500 µM; MIC [16, 25]: > 500 µM; MIC [17, 26]: > 500 µM; MIC [17, 27]: > 500 µM; MIC [18, 28]: > 500 µM; MIC [18, 29]: > 500 µM; melting point: 171.2 to 172 °C
O=C(Nc1cnccn1)c1ccccc1O [Compound 1b]	> 100	> 100	> 100	≥ 500	> 500	> 500	> 500	> 500	> 500	> 500	> 500	> 500	> 500	> 500	> 500	> 500	> 500	> 500	> 500	> 500	MIC ([13]; E28, 24 h): > 500 µM; MIC ([13]; E28, 48 h): > 500 µM; MIC ([14]; 24 h): > 500 µM; MIC ([14]; 48 h): > 500 µM; MIC [15, 22]: > 500 µM; MIC [15, 23]: > 500 µM; MIC [16, 24]: > 500 µM; MIC [16, 25]: > 500 µM; MIC [17, 26]: > 500 µM; MIC [17, 27]: > 500 µM; MIC [18, 28]: 500 µM (≈ 108 µg/mL); MIC [18, 29]: 500 µM (≈ 108 µg/mL); melting point: 209.9 to 211.5 °C
CC(=O)Oc1cccc(C(=O)Nc2cnccn2)c1 [Compound 1c-Ac]	> 100	> 100	> 100	≥ 500	> 500	> 500	> 500	> 500	> 500	> 500	> 500	> 500	> 500	> 500	> 500	> 500	> 500	> 500	> 500	> 500	MIC ([13]; E28, 24 h): > 500 µM; MIC ([13]; E28, 48 h): > 500 µM; MIC ([14]; 24 h): > 500 µM; MIC ([14]; 48 h): > 500 µM; MIC [15, 22]: > 500 µM; MIC [15, 23]: > 500 µM; MIC [16, 24]: > 500 µM; MIC [16, 25]: > 500 µM; MIC [17, 26]: > 500 µM; MIC [17, 27]: > 500 µM; MIC [18, 28]: > 500 µM; MIC [18, 29]: > 500 µM; melting point: 168.4 to 169.5 °C
O=C(Nc1cnccn1)c1cccc(O)c1 [Compound 1c]	> 100	> 100	> 100	≥ 500	> 500	> 500	> 500	> 500	> 500	> 500	> 500	> 500	> 500	> 500	> 500	> 500	> 500	> 500	> 500	> 500	MIC ([13]; E28, 24 h): > 500 µM; MIC ([13]; E28, 48 h): > 500 µM; MIC ([14]; 24 h): > 500 µM; MIC ([14]; 48 h): > 500 µM; MIC [15, 22]: > 500 µM; MIC [15, 23]: > 500 µM; MIC [16, 24]: > 500 µM; MIC [16, 25]: > 500 µM; MIC [17, 26]: > 500 µM; MIC [17, 27]: > 500 µM; MIC [18, 28]: > 500 µM; MIC [18, 29]: > 500 µM; melting point: 192.2 to 193.7 °C
